# pEC50: −log10 of the molar value.
# Experiments:
# [1] = system: recombinant NL4-3 virus (nef section replaced with Renilla luciferase gene) in MT-2 cells; assay: HIV cell culture assay (antiviral activity, luciferase readout); type: cell-based
# How it was run: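 Serial compound dilutions tested in MT-2 cells infected for 4-5 days with 293T-derived NL4-3 virus carrying Renilla luciferase in place of part of nef. Antiviral activity quantified as luciferase activity, read with a live-cell substrate.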
# [2] = Compound cytotoxicity, XTT-based colorimetric assay; type: cell-based; details: human, uninfected MT2 cells, day 4, XTT
# How it was run: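 Run under the antiviral-assay protocol but without virus. Viability was read on day 4 and CC50 values were derived from the readout.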
# [3] = Renilla, NL43, MT-2 cells infected for 4-5 days with recombinant NL4-3 Renilla luciferase virus
# [4] = MT-2 cells infected for 4-5 days with recombinant NL4-3 Renilla luciferase virus
SMILES,"pEC50 [1, 3]",CC50 at 4 days [2],"pEC50 [1, 4]"
CN(C(=O)[C@H](Cc1cc(F)cc(F)c1)NC(=O)NS(=O)(=O)N1CCc2ccncc21)c1ccc2scnc2c1 [BB-9],6.39,> 100000 nM,–
CCN(C)S(=O)(=O)NC(=O)N[C@@H](Cc1cc(F)cc(F)c1)C(=O)N(C)c1ccc2scnc2c1 [CA-154],7.52,> 50000 nM,–
COc1ccc(N(C)C(=O)[C@H](Cc2ccccc2)NC(=O)NS(=O)(=O)NCc2ccccn2)cc1 [JB-39],5.86,> 100000 nM,–
CN(C(=O)[C@H](Cc1cc(F)cc(F)c1)NC(=O)NS(=O)(=O)N1CCc2cccc(F)c21)c1ccc2scnc2c1 [ZY-15],7.52,> 33300 nM,–
CN(C(=O)[C@H](Cc1cc(F)cc(F)c1)NC(=O)NS(=O)(=O)N1CCC(c2ccccc2)C1)c1ccc2scnc2c1 (mixture of isomers) [CA-152],6.26,> 100000 nM,–
"CN(C(=O)[C@H](Cc1cc(F)cc(F)c1)NC(=O)NS(=O)(=O)N1CCCC1c1ccccc1)c1ccc2scnc2c1 (single isomer, unassigned) [VN-3]",–,52400 nM,6.07
CN(C(=O)[C@H](Cc1cc(F)cc(F)c1)NC(=O)NS(=O)(=O)N(C)Cc1ccccc1)c1ccc2scnc2c1 [CA-139],6.66,> 100000 nM,–
CC(C)c1ccc(N(C)C(=O)[C@H](Cc2cc(F)cc(F)c2)NC(=O)NS(=O)(=O)N2CCc3cccnc32)cn1 [BB-18],8.00,> 100000 nM,–
CN(C(=O)[C@H](Cc1cc(F)cc(F)c1)NC(=O)NS(=O)(=O)N1CCc2cccnc21)c1ccc2sc(=O)[nH]c2c1 [GW-5],6.49,> 100000 nM,–
CC(C)CN(C)S(=O)(=O)NC(=O)N[C@@H](Cc1cc(F)cc(F)c1)C(=O)N(C)c1ccc2scnc2c1 [CA-140],7.40,> 100000 nM,–
COc1ccc(N(C)C(=O)[C@H](Cc2ccccc2)NC(=O)NS(=O)(=O)Nc2ccc(OC(C)C)cc2)cc1 [CA-40],6.66,> 100000 nM,–
COc1ccc(N(C)C(=O)[C@H](Cc2ccccc2)NC(=O)NS(=O)(=O)n2c(C)cc3ccc(OC)cc32)cc1 [CA-64],6.36,62400 nM,–
COc1ccc(N(C)C(=O)[C@H](Cc2ccccc2)NC(=O)NS(=O)(=O)Nc2ccc(OC(F)(F)F)cc2)cc1 [CA-34],6.74,> 33300 nM,–
COc1ccc(N(C)C(=O)[C@H](Cc2ccccc2)NC(=O)NS(=O)(=O)Nc2cccc(OC)c2)cc1 [JB-20],7.00,> 100000 nM,–
COc1ccc(N(C)C(=O)[C@H](Cc2ccccc2)NC(=O)NS(=O)(=O)N2CCc3cccnc32)cc1 [JB-31],6.85,> 100000 nM,–
COc1ccc(NS(=O)(=O)NC(=O)N[C@@H](Cc2ccccc2)C(=O)N(C)c2ccc(OC)cc2)cc1 [JB-27],6.82,> 100000 nM,–
COc1ccc(N(C)C(=O)[C@H](Cc2ccccc2)NC(=O)NS(=O)(=O)Nc2cccc(C#N)c2)cc1 [CA-9],6.59,> 100000 nM,–
COc1ccc(N(C)C(=O)[C@H](Cc2ccccc2)NC(=O)NS(=O)(=O)Nc2cc(C)cc(C)c2)cc1 [CA-14],6.92,> 33300 nM,–
COc1ccc(N(C)C(=O)[C@H](Cc2ccccc2)NC(=O)NS(=O)(=O)N(C)c2ccc(OC)cc2)cc1 [JB-28],6.68,> 100000 nM,–
COc1ccc(N(C)C(=O)[C@H](Cc2ccccc2)NC(=O)NS(=O)(=O)Nc2ccccc2OC(F)(F)F)cc1 [CA-26],6.57,> 100000 nM,–
COCCN(C)S(=O)(=O)NC(=O)N[C@@H](Cc1cc(F)cc(F)c1)C(=O)N(C)c1ccc2scnc2c1 [CA-149],7.10,> 100000 nM,–
CCc1ccc(N(C)C(=O)[C@H](Cc2cc(F)cc(F)c2)NC(=O)NS(=O)(=O)N2CCc3cccnc32)cn1 [GW-3],7.70,> 100000 nM,–
CN(C(=O)[C@H](Cc1cc(F)cc(F)c1)NC(=O)NS(=O)(=O)N1CCc2cccnc21)c1ccc(N2CCOCC2)cc1 [BB-3],6.47,68100 nM,–
COc1ccc(N(C)C(=O)[C@H](Cc2ccccc2)NC(=O)NS(=O)(=O)N(c2ccccc2)C(C)C)cc1 [CA-25],6.00,> 33300 nM,–
COc1ccc(N(C)C(=O)[C@H](Cc2ccccc2)NC(=O)NS(=O)(=O)NCc2cccc(F)c2)cc1 [JB-57],5.19,> 100000 nM,–

SMILES,"pEC50 [1, 3]",CC50 at 4 days [2],"pEC50 [1, 4]"
CN(C(=O)[C@H](Cc1cc(F)cc(F)c1)NC(=O)NS(=O)(=O)N1CCc2cccnc21)c1ccc(C2CC2)cc1 [GW-10],7.52,91000 nM,–
CN(C(=O)[C@H](Cc1cc(F)cc(F)c1)NC(=O)NS(=O)(=O)N1CCOc2cccnc21)c1ccc2scnc2c1 [AW-1],6.96,> 100000 nM,–
CC(=O)N1CCN(S(=O)(=O)NC(=O)N[C@@H](Cc2cc(F)cc(F)c2)C(=O)N(C)c2ccc3scnc3c2)CC1 [CA-148],4.99,> 100000 nM,–
COc1ccc(N(C)C(=O)[C@H](Cc2ccccc2)NC(=O)NS(=O)(=O)NCc2nccs2)cc1 [JB-43],6.12,> 100000 nM,–
CN(C(=O)[C@H](Cc1cc(F)cc(F)c1)NC(=O)NS(=O)(=O)N1CCc2cc(F)ccc21)c1ccc2scnc2c1 [ZY-12],6.96,> 100000 nM,–
CN(C(=O)[C@H](Cc1cc(F)cc(F)c1)NC(=O)N(C)S(=O)(=O)N1CCc2cccnc21)c1ccc2scnc2c1 [BB-25],6.28,> 33300 nM,–
CN(C(=O)[C@H](Cc1cc(F)cc(F)c1)NC(=O)NS(=O)(=O)N1CCCC1=O)c1ccc2scnc2c1 [BB-33],6.35,> 100000 nM,–
COc1ccc(N(C)C(=O)[C@H](Cc2ccccc2)NC(=O)NS(=O)(=O)N(C)C(c2ccccc2)c2ccccc2)cc1 [JB-40],5.54,66500 nM,–
COc1ccc(N(C)C(=O)[C@H](Cc2ccccc2)NC(=O)NS(=O)(=O)N2CCCCC2c2ccccc2)cc1 (some centres unmarked) [JB-53],5.96,85500 nM,–
CN(C(=O)[C@H](Cc1cc(F)cc(F)c1)NC(=O)NS(=O)(=O)N1CCc2cccnc21)c1ccc2cncnc2c1 [BB-30],6.59,> 100000 nM,–
CCc1ccc(N(C)C(=O)[C@H](Cc2cc(F)cc(F)c2)NC(=O)NS(=O)(=O)N(C)C)cn1 [GW-17],7.00,> 100000 nM,–
"CN(C(=O)[C@H](Cc1cc(F)cc(F)c1)NC(=O)NS(=O)(=O)N1CCCC1c1ccccn1)c1ccc2scnc2c1 (single isomer, unassigned) [VN-1]",–,> 100000 nM,5.61
CC(C)CCNS(=O)(=O)NC(=O)N[C@@H](Cc1cc(F)cc(F)c1)C(=O)N(C)c1ccc2scnc2c1 [CA-145],6.92,> 100000 nM,–
CN(C(=O)[C@H](Cc1cc(F)cc(F)c1)NC(=O)NS(=O)(=O)N1CCc2ccccc21)c1ccc2scnc2c1 [ZY-8],7.70,88000 nM,–
COc1ccc(N(C)C(=O)[C@H](Cc2ccccc2)NC(=O)NS(=O)(=O)N(C)CC(=O)N(C)C)cc1 [JB-30],5.71,> 100000 nM,–
COc1ccc(N(C)C(=O)[C@H](Cc2cc(F)cc(F)c2)NC(=O)NS(=O)(=O)N2CCC(F)(F)CC2)cc1F [AW-3],6.01,> 100000 nM,–
COc1ccc(N(C)C(=O)[C@H](Cc2ccccc2)NC(=O)NS(=O)(=O)Nc2cc(Cl)ccc2F)cc1 [JB-49],6.70,> 100000 nM,–
Cc1ccc(N(C)C(=O)[C@H](Cc2cc(F)cc(F)c2)NC(=O)NS(=O)(=O)N2CCc3cccnc32)cn1 [GW-2],7.15,> 100000 nM,–
CCN(c1ccccc1)S(=O)(=O)NC(=O)N[C@@H](Cc1ccccc1)C(=O)N(C)c1ccc(OC)cc1 [CA-23],7.22,> 100000 nM,–
COc1ccc(N(C)C(=O)[C@H](Cc2ccccc2)NC(=O)NS(=O)(=O)N2CCc3ccccc32)cc1 [JB-1],6.96,> 100000 nM,–
COc1ccc(N(C)C(=O)[C@H](Cc2ccccc2)NC(=O)NS(=O)(=O)n2c(C)cc3ccncc32)cc1 [CA-62],5.43,> 100000 nM,–
Cc1cc(F)cc(N(C)C(=O)[C@H](Cc2cc(F)cc(F)c2)NC(=O)NS(=O)(=O)N2CCc3cccnc32)c1 [BB-13],6.57,89500 nM,–
CN(C(=O)[C@H](Cc1cc(F)cc(F)c1)NC(=O)N1CCN(C)S1(=O)=O)c1ccc2scnc2c1 [VN-28],6.60,> 100000 nM,–
CN(C(=O)[C@H](Cc1cc(F)cc(F)c1)NC(=O)NS(=O)(=O)N1CCc2cccnc21)c1ccc(C(F)F)nc1 [GW-12],6.92,> 100000 nM,–
